Literature values in article PMC11047177 (ESMO Open, 2024).
Like-named read-outs stand apart in the source and are kept apart here.

Tests used:
[1] = cited from earlier work
[2] = cited from earlier work; remark: listed apart in the source
[3] = advanced solid tumors, non-Hodgkin's lymphoma, or lower-risk myelodysplastic syndrome
[4] = patients with advanced solid tumors

SMILES | TRAE Fatigue [1, 3] [%] | TRAE Nausea [1, 3] [%] | TRAE thrombocytopenia [1, 3] [%] | Preliminary evidence of antitumor activity [1] | Preliminary evidence of antitumor activity [2] | TRAE Anemia [2, 4] [%] | TRAE Dysgeusia [2, 4] [%] | TRAE Fatigue [2, 4] [%] | TRAE Nausea [2, 4] [%]
Nc1nc2cc(CC[C@H]3C[C@@H](n4ccc5c(N)ncnc54)[C@H](O)[C@@H]3O)ccc2cc1Br [JNJ-64619178] | 32 | 39 | 52 | patients achieving PRs |  |  |  |  | 
CC(=O)N1CCC(Nc2cc(C(=O)NC[C@H](O)CN3CCc4ccccc4C3)ncn2)CC1 [GSK3326595] |  |  |  |  | patients achieving PRs | 31 | 26 | 39 | 31
